The values below come from patent publication US9381175B2, “Method for treating Chikungunya virus infection” (priority 2014, dated 2016).

Data set [1] has as its system CHIKV. Kind of data set: Cell protection assay against CHIKV infection (crystal violet). It counts as cell-based, Chikungunya virus. The settings on record: BHK-21, moi 0.05, 2 days, FIG. 18.
Data set [2] deals with CHIKV. Kind of data set: Immunofluorescence assay of CHIKV infection in BHK-21 cells. Format: cell-based, Chikungunya virus.
A further data set relates to BHK-21 cells. In words: Cytotoxicity assay (crystal violet). Format: cell-based. The note with it: 1,000 μg/ml, BHK-21, 2 days, crystal violet OD 540, FIG. 18 left panel. As for the experimental part: 10^5 BHK-21 cells per well of 96-well plate were cultured with 2% FCS DMEM. For cykotoxicity assay, cells were cultured in the presence or absence of drug at various concentrations in duplication for 2 days. For cell protection assay, cells were infected with CHIKV at moi of 0.05 in the presence or absence of drugs at various concentrations in duplication for 2 days. Cells were then stained with 0.1% crystal violet solution to observe clearance of the cell monolayer caused by the cytotoxic or cytopathic effect. Crystal violet was quantified by optical density (OD) 540.

For data set [3], the system named is CHIKV. Kind of data set: Western blot of CHIKV structural protein production in BHK-21 cells. The settings on record: FIG. 14. (In general: A western blot detects proteins with antibodies after separation by electrophoresis.)
The test system of data set [4] is cell fusion of Sf21 cells infected with CS-WT viruses (CHIKV). Kind of data set: Cell fusion assay, Sf21 cells infected with recombinant baculovirus CS-WT. The note with it: for inhibition of cell fusion in CS-WT infected Sf21 cells: 5 mg/mL, 2 hours, pH 5.8, FIG. 11; for inhibition of cell fusion induced by CS-WT infection, primary screening: Sf21 cells, screening of drug library, antiviral agents and synthetic peptides, data not shown; for inhibition of the membrane fusion of Chikungunya viruses (summary of screening result): bicistronic baculovirus expression system in Sf21 cells.

The subject of data set [5] is cell fusion of Sf21 cells infected with VS-TC83 (VEEV-TC83) viruses. Format: cell-based, Venezuelan equine encephalitis virus. The settings on record: for inhibition of fusion (fusion index) of Sf21 cells infected with VS-TC83 viruses: pH 5.8.
A further data set concerns VEEV-TC83. It counts as cell-based, Venezuelan equine encephalitis virus.

For the compound `Cc1ccc(C(=O)Nc2ccc(S(=O)(=O)O)c3cc(S(=O)(=O)O)cc(S(=O)(=O)O)c23)cc1NC(=O)c1cccc(NC(=O)Nc2cccc(C(=O)Nc3cc(C(=O)Nc4ccc(S(=O)(=O)O)c5cc(S(=O)(=O)O)cc(S(=O)(=O)O)c45)ccc3C)c2)c1` [suramin], in the data set on CHIKV [1], the “concentrations at which the cells are significantly protected from CHIKV infection” value is reported as 15.6-1,000 μg/ml and the “protection from the cytopathic effect of CHIKV infection” value is “protects BHK-21 cells from the cytopathic effect”. Besides, the “inhibition of CHIKV infection in vitro (E2 immunofluorescence)” value in the data set with CHIKV [2] (175 μM (2.5 mg/mL), BHK-21, M.O.I. 1, 20 hours, FIG. 15) is on record as “inhibit CHIKV infection in vitro”. The “time-of-addition: stage in which the inhibition activity takes place” value in the data set with CHIKV [2] (5 mg/mL (350 μM), immunofluorescence, FIG. 17 panels A-C) was 0-2 hours post infection. The “time-of-addition: inhibitory effect on addition at a later stage” value in the data set on CHIKV [2] (5 mg/mL (350 μM), immunofluorescence, FIG. 17 panels D-F) is recorded as “almost no inhibitory effect”. Further, the “in vitro inhibition efficacy against CHIKV, dose dependence” value with CHIKV [2] (BHK-21, 2,000 PFU CHIKV, 20 hours, FIG. 16) is given as “increases as the concentration of suramin increases”. For the same compound, in the data set on CHIKV [2] (dose of less than 44 μM, FIG. 16 panel D), the “in vitro inhibitory effect against CHIKV” value is “marginal inhibitory effect”. In addition, the cytotoxicity result with BHK-21 cells is recorded as “minimal cytotoxicity”. Also, the “inhibitory effect on the production of the structural proteins of CHIKV” value in the data set with CHIKV [3] (44 μM, BHK-21 cells) is on record as “only marginal inhibitory effect”. In addition, in the data set with CHIKV [3] (BHK-21 cells, 10,000 PFU CHIKV, 20 hours), the “inhibitory effect on the production of the structural proteins of CHIKV, dose dependence” value was “dose-dependency of the inhibitory effect”. Also, the “inhibitory effect on cell fusion (fusion index)” value in data set [4] (55 μM, FIG. 13) is reported as “minimal”. Also, in data set [4], the “inhibition of cell fusion in CS-WT infected Sf21 cells” value is on record as “remarkably inhibited the cell fusion”; the “inhibition of cell fusion induced by CS-WT infection, primary screening” value (shortened to “inhibition … primary screening”) is “substantially inhibited the cell fusion”; the “inhibition of the membrane fusion of Chikungunya viruses (summary of screening result)” value was “block the membrane fusion”. For the same compound, the “inhibitory efficacy on cell fusion (fusion index), dose dependence” value in data set [4] (3,500, 875, 219 or 55 μM, FIG. 12/13) is on record as “inhibitory efficacy of suramin increases as the concentration of suramin increases”.

On to `O=C1[C@H](CC[C@H](O)c2ccc(F)cc2)[C@@H](c2ccc(O)cc2)N1c1ccc(F)cc1` [ezetimibe], for which, in data set [4], the “inhibition … primary screening” value was “failed to inhibit the cell fusion”.

On to dextran sulfate, for which, in data set [5], the “inhibition of cell fusion induced by VS-TC83 virus, dose dependence” value is “inhibit the cell fusion induced by VS-TC83 virus in a dose-dependent manner”; the “inhibition of the membrane fusion of Venezuelan equine encephalitis virus (summary of screening result)” value is “can inhibit the membrane fusion”; the “inhibition of fusion (fusion index) of Sf21 cells infected with VS-TC83 viruses” value was “substantially inhibit the fusion”. In addition, the “inhibition of VEEV-TC83 infection” value with VEEV-TC83 is reported as “elicited dose-dependent inhibition”. For the same compound, the “inhibition of the membrane fusion of Chikungunya viruses (summary of screening result)” value in data set [4] was “not effective to inhibit the membrane fusion”.

As for heparin, in data set [5], the “inhibition of cell fusion induced by VS-TC83 virus, dose dependence” value is recorded as “inhibit the cell fusion induced by VS-TC83 virus in a dose-dependent manner”; the “inhibition of the membrane fusion of Venezuelan equine encephalitis virus (summary of screening result)” value was “can inhibit the membrane fusion”; the “inhibition of fusion (fusion index) of Sf21 cells infected with VS-TC83 viruses” value is “substantially inhibit the fusion”. The “inhibition of VEEV-TC83 infection” value in the data set on VEEV-TC83 is on record as “elicited dose-dependent inhibition”. Further, in data set [4], the “inhibition of the membrane fusion of Chikungunya viruses (summary of screening result)” value is reported as “not effective to inhibit the membrane fusion”.

Consider `NC(=O)c1ncn([C@@H]2O[C@H](CO)[C@@H](O)[C@H]2O)n1` [ribavirin], for which the “inhibition of CHIKV infection in vitro (E2 immunofluorescence), comparison with suramin” value in the data set on CHIKV [2] (12.5 μg/ml, BHK-21, M.O.I. 1, 20 hours, FIG. 15) is “inhibition efficacy of suramin is higher than that of ribavirin”.

In the case of chondroitin sulfate, the “inhibition of cell fusion in CS-WT infected Sf21 cells” value in data set [4] is recorded as “did not substantially inhibit the cell fusion”.

On to carrageenan, for which, in data set [4], the “inhibition … primary screening” value was “failed to inhibit the cell fusion”.
